We go through twelve compounds from patent publication US20060241114A1, “Derivatives of azasugars as anticancer agents” (priority 2003, published 2006).

Test [1] concerns MCF7ADR (adriamycin resistant breast adenocarcinoma). The test is described as follows: In vitro growth inhibition screen (sulphorhodamine B), MCF7ADR. The conditions noted are these: MCF7ADR cells, incubated for 48 hours, sulphorhodamine B dye; read-out: GI50 (concentration which inhibits the cell growth by 50%), MCF7ADR Adriamycin Resistant Breast adenocarcinoma. In kind it is cell-based, human. The method in brief: (§1)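 SRB assay, 48 h treatment, RPMI 1640 + 10% FCS, 37° C, 5% CO2; dose range ≧100 μM–10 nM in ten-fold steps; OD 490 nm; GI50 derived.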

The subject of test [2] is HT29 (colorectal adenocarcinoma). As to the kind of experiment: In vitro growth inhibition screen (sulphorhodamine B), HT29. The class given is cell-based, human. The conditions noted are these: HT29 cells, incubated for 48 hours, sulphorhodamine B dye; read-out: GI50 (concentration which inhibits the cell growth by 50%), HT29 Colorectal adenocarcinoma. An outline of the steps: as §1

For test [3], the system named is MCF7 (breast adenocarcinoma). The test is described as follows: In vitro growth inhibition screen (sulphorhodamine B), MCF7. The class given is cell-based, human. The note with it: MCF7 cells, incubated for 48 hours, sulphorhodamine B dye; read-out: GI50 (concentration which inhibits the cell growth by 50%), MCF7 Breast adenocarcinoma. An outline of the steps: as §1

Test [4] deals with DU145 (prostate carcinoma). The test is described as follows: In vitro growth inhibition screen (sulphorhodamine B), DU145. In kind it is cell-based, human. The conditions noted are these: DU145 cells, incubated for 48 hours, sulphorhodamine B dye; read-out: GI50 (concentration which inhibits the cell growth by 50%), DU145 Prostate carcinoma. The method in brief:
as §1

The subject of test [5] is LOX (melanoma). As to the kind of experiment: In vitro growth inhibition screen (sulphorhodamine B), LOX. In kind it is cell-based, human. The conditions noted are these: LOX cells, incubated for 48 hours, sulphorhodamine B dye; read-out: GI50 (concentration which inhibits the cell growth by 50%), LOX Melanoma. The method in brief:
as §1

Test [6] has as its system U251 (human glioblastoma). As to the kind of experiment: In vitro growth inhibition screen (sulphorhodamine B), U251. The conditions noted are these: U251 cells, incubated for 48 hours, sulphorhodamine B dye; read-out: GI50 (concentration which inhibits the cell growth by 50%), U251 Human glioblastoma astrocytoma. In kind it is cell-based. The method in brief:
as §1

`CCCN1C(=O)[C@H](OCc2ccccc2)[C@@H](OCc2ccccc2)[C@H](OCc2ccccc2)[C@H]1CNC(=O)N1CC2C(C1)C2NC(C)=O` (stereo partly drawn) [Compound No. 79, 2,3,4-Tri-O-benzyl-6-N-{(1α,5α,6α)-6-acetylamino-azabicyclo[3.1.0]hexylcarboxamido}-N-propyl-D-gluco-δ-lactam]: the GI50 in test [1] came out at 17.9 µM; in test [2], 21.8 µM; in test [3], 18.2 µM; in test [4], 18.9 µM; in test [5], 7.4 µM; in test [6] it was 15.5 µM.

On to `C=CCN1C(=O)C(OCc2ccccc2)C(OCc2ccccc2)C(OCc2ccccc2)C1Cn1ncn(-c2ccc(Cl)cc2)c1=O` [Compound No. 81, 2,3,4-Tri-O-benzyl-6-[4-chlorophenyl-3(2H,4H)-1,2,4-triazol-3-onyl]-N-allyl-D-gluco-δ-lactam], for which the GI50 in test [1] was 77 µM; in test [2] it was 49.5 µM; in test [3], 102 µM; in test [4], 70.1 µM; in test [5], 11.9 µM; in test [6], above 250 µM.

`C=CCN1C(=O)C(OCc2ccccc2)C(OCc2ccccc2)C(OCc2ccccc2)C1CN1C(=O)CCCC1=O` [Compound No. 82, N-Allyl-2,3,4-tri-O-benzyl-6-(2,6-diketopiperidino)-D-gluco-δ-lactam]: the GI50 in test [1] was 17.5 µM; in test [2], 23.5 µM; in test [3], 9.9 µM; in test [4], 24.8 µM; in test [5], 8.5 µM; in test [6], 12.5 µM.

For `C=CCN1C(=O)[C@H](OCc2ccccc2)[C@@H](OCc2ccccc2)[C@H](OCc2ccccc2)[C@H]1CN1C(=O)c2ccccc2C1=O` [Compound No. 83, N-Allyl-2,3,4-tri-O-benzyl-6-(1H-isoindole-1,3(2H)-diketo)-D-gluco-δ-lactam], the GI50 was 6.7 µM in test [1]; 80.1 µM in test [2]; 13.1 µM in test [3]; 55.2 µM in test [4]; 51.4 µM in test [5]; above 140 µM in test [6].

In the case of `C=CCN1C(=O)C(OCc2ccccc2)C(OCc2ccccc2)C(OCc2ccccc2)C1CN1C(=O)CCC1=O` [Compound No. 84, N-Allyl-2,3,4-tri-O-benzyl-6-(2,5-diketopyrrolidino)-D-gluco-δ-lactam], the GI50 was found to be 6.4 µM in test [1]; 18.7 µM in test [2]; 5.3 µM in test [3]; 18.3 µM in test [4]; 5.9 µM in test [5]; 9.3 µM in test [6].

In the case of `C=CCN1C[C@H](OCc2ccccc2)[C@@H](OCc2ccccc2)[C@H](OCc2ccccc2)[C@H]1CN1CCOCC1` [Compound No. 85, N-Allyl-2,3,4-tri-O-benzyl-1,5-dideoxy-1,5-imino-6-morpholino glucitol], the GI50 stood at 40.3 µM in test [1]; 11.3 µM in test [2]; 7.2 µM in test [3]; 43.5 µM in test [4]; 27.3 µM in test [5]; 25.9 µM in test [6].

In the case of `CCCN1C(=O)[C@H](O)[C@@H](O)[C@H](O)[C@H]1CN1C(=O)CCC1=O` [Compound No. 86, 6-(2,5-Diketopyrrolidino)-N-propyl-D-gluco-δ-actam], the GI50 stood at 52.2 µM in test [1]; 44.4 µM in test [2]; 36.2 µM in test [3]; 38.5 µM in test [4]; 37.5 µM in test [5]; 34.4 µM in test [6].

In the case of `CCCN1C(=O)[C@H](O)[C@@H](O)[C@H](O)[C@H]1CN1C(=O)CCCC1=O` [Compound No. 87, 6-(2,6-Diketopiperidino)-N-propyl-D-gluco-δ-lactam], the GI50 in test [1] was 96.9 µM; in test [2] it was 108 µM; in test [3], 74.2 µM; in test [4], 131 µM; in test [5], 244 µM; in test [6], 101 µM.

On to `CCCN1C(=O)[C@H](OCc2ccccc2)[C@@H](OCc2ccccc2)[C@H](OCc2ccccc2)[C@H]1COc1nc(Cl)nc(Cl)n1` [Compound No. 90, 2,3,4-Tri-O-benzyl-6-O-(4,6-dichloro-1,3,5-triazin-1-yl)-N-propyl-D-gluco-δ-lactam], for which the GI50 in test [1] worked out at 18.7 µM; in test [2] it was 37.1 µM; in test [3] it was 35.4 µM; in test [4], 16.7 µM; in test [5], 14.4 µM; in test [6] it was 52.8 µM.

With “N-Allyl-2,3,4-tri-O-benzyl-1,5-dideoxy-1,5-imino-D-glucitol [Compound No. 71]”, the GI50 turned out to be 9.2 µM in test [1]; 3.5 µM in test [2]; 5.4 µM in test [3]; 14.5 µM in test [4]; 9.5 µM in test [5]; 8.3 µM in test [6].

In the case of “N-Propyl-6-[4-chlorophenyl-3(2H,4H)-1,2,4-triazol-3-onyl]-D-gluco-δ-lactam [Compound No. 88]”, the GI50 in test [1] stood at 107 µM; in test [2], 111 µM; in test [3] it was 102 µM; in test [4] it was 144 µM; in test [5], 135 µM; in test [6], 90.7 µM.

Regarding “N-{4-[Phenyl]piperazinyl carboxamido}-D-gluco-δ-lactam [Compound No. 80]”, the GI50 was determined as 60.1 µM in test [1]; 100 µM in test [2]; 69.4 µM in test [3]; 90.7 µM in test [4]; 75.9 µM in test [5]; 59.9 µM in test [6].
